Our source for the IC90 values is patent publication US11390604B2 (Hoffmann-La Roche Inc., priority 2019, dated 2022).

Structures are written as SMILES. Counter-ions that a name gives are not always drawn.

The test system of this experiment is Acinetobacter baumannii ATCC 17961. Kind of experiment: Antimicrobial susceptibility testing: 90% growth inhibitory concentration (IC90) determination. Format: cell-based. The note with it: ATCC17961, Acinetobacter baumannii ATCC 17961, Iso-Sensitest broth, read-out: ATCC 17961 IC90. In outline: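 Broth microdilution in Iso-Sensitest medium, twofold series (e.g. 50 to 0.097 μM final), ~5×10^5 CFU/ml inoculum, 35±2 °C. OD600 read every 20 min over 16 h. IC90 derived from growth inhibition during logarithmic phase.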

As for `Cn1c(-c2cn(C3CC3)nc2C(F)(F)F)cnc1C(=O)Nc1ccc(C(=O)N[C@H]2[C@@H]3CN(C(=O)C4CCNCC4)C[C@@H]32)c(Cl)c1` [Example 306, N-(3-chloro-4-((exo-3-(piperidine-4-carbonyl)-3-azabicyclo[3.1.0]hexan-6-yl)carbamoyl)phenyl)-5-(1-cyclopropyl-3-(trifluoromethyl)-1H-pyrazol-4-yl)-1-methyl-1H-imidazole-2-carboxamide], the IC90 (as a rule, the concentration at which the effect reaches the 90% level) was 374 nM.
In the case of `Cn1c(-c2cn(CC=C(F)F)nc2C(F)(F)F)cnc1C(=O)Nc1ccc(C(=O)N[C@H]2C[C@@H](N)C2)c(Cl)c1` [Example 307, rac-N-(4-(((1s,3s)-3-aminocyclobutyl)carbamoyl)-3-chlorophenyl)-5-(1-(3,3-difluoroallyl)-3-(trifluoromethyl)-1H-pyrazol-4-yl)-1-methyl-1H-imidazole-2-carboxamide 2,2,2-trifluoroacetate], the 90% effect concentration (IC90) was determined as 375 nM.
Then `CSc1ccc(NC(=O)c2ncc(-c3cn(CC(F)F)nc3C(F)(F)F)n2C)cc1C` [Example 308, 5-[1-(2,2-difluoroethyl)-3-(trifluoromethyl)pyrazol-4-yl]-1-methyl-N-(3-methyl-4-methylsulfanyl-phenyl)imidazole-2-carboxamide], with 377 nM.
As to `Cn1c(-c2cn(C3CC3)nc2C(F)(F)F)cnc1C(=O)Nc1ccc(C(=O)N2CCN(C(=O)CC3CCNCC3)CC2)c(Cl)c1` [Example 309, N-(3-chloro-4-(4-(2-(piperidin-4-yl)acetyl)piperazine-1-carbonyl)phenyl)-5-(1-cyclopropyl-3-(trifluoromethyl)-1H-pyrazol-4-yl)-1-methyl-1H-imidazole-2-carboxamide hydrochloride], the IC90 came to 378 nM.
Turning to `Cn1c(-c2cn(C3CC3)nc2C(F)(F)F)cnc1C(=O)Nc1ccc(C(=O)N2CCN(C(=O)C3CNCCC3O)CC2)c(Cl)c1` (stereo not drawn) [Example 311, N-[3-chloro-4-[4-(4-hydroxypiperidine-3-carbonyl)piperazine-1-carbonyl]phenyl]-5-[1-cyclopropyl-3-(trifluoromethyl)pyrazol-4-yl]-1-methylimidazole-2-carboxamide;hydrochloride], the IC90 came to 382 nM.
As to `C/C=C/Cn1cc(-c2cnc(C(=O)Nc3ccc(C(=O)N4CCN(C(=O)C5CCNCC5)CC4)c(Cl)c3)n2C)c(C(F)(F)F)n1` [Example 312, (E)-5-(1-(but-2-en-1-yl)-3-(trifluoromethyl)-1H-pyrazol-4-yl)-N-(3-chloro-4-(4-(piperidine-4-carbonyl)piperazine-1-carbonyl)phenyl)-1-methyl-1H-imidazole-2-carboxamide hydrochloride], the IC90 stood at 385 nM.
As to `Cn1c(-c2cn(C3CC3)nc2C(F)(F)F)cnc1C(=O)Nc1ccc(C(=O)N2CCN(C(=O)[C@H]3C[C@H](O)CN3)CC2)c(Cl)c1` [Example 313, N-(3-chloro-4-(4-((2R,4S)-4-hydroxypyrrolidine-2-carbonyl)piperazine-1-carbonyl)phenyl)-5-(1-cyclopropyl-3-(trifluoromethyl)-1H-pyrazol-4-yl)-1-methyl-1H-imidazole-2-carboxamide hydrochloride], the IC90 turned out to be 386 nM.
Consider `Cn1c(-c2cn(C3CC3(F)F)nc2C(F)(F)F)cnc1C(=O)Nc1ccc(C(=O)NCCCCNC(=O)OC(C)(C)C)c(Cl)c1` (stereo not drawn) [Example 314, tert-butyl (4-(2-chloro-4-(5-(1-(2,2-difluorocyclopropyl)-3-(trifluoromethyl)-1H-pyrazol-4-yl)-1-methyl-1H-imidazole-2-carboxamido)benzamido)butyl) carbamate], for which the IC90 was 388 nM.
In the case of `Cn1c(-c2cn(CC#N)nc2C(F)(F)F)cnc1C(=O)Nc1ccc(C(=O)N[C@H]2C[C@H](NC(=O)[C@@H]3CCNC3)C2)c(Cl)c1` [Example 315, N-[3-chloro-4-[[3-[[(3R)-pyrrolidine-3-carbonyl]amino]cyclobutyl]car-bamoyl]phenyl]-5-[1-(cyanomethyl)-3-(trifluoromethyl)pyrazol-4-yl]-1-methylimidazole-2-carboxamide;formic acid], the 90% effect concentration (IC90) was determined as 390 nM.
With `Cn1c(-c2cn(CC#N)nc2C(F)(F)F)cnc1C(=O)Nc1ccc(C(=O)N[C@H]2C[C@@H](NC(=O)N3CC[C@@H](N)C3)C2)c(Cl)c1` [Example 316, N-[4-[[3-[[(3R)-3-aminopyrrolidine-1-carbonyl]amino]cyclobutyl]car-bamoyl]-3-chloro-phenyl]-5-[1-(cyanomethyl)-3-(trifluoromethyl)pyrazol-4-yl]-1-methyl-imidazole-2-carboxamide; formic acid], the IC90 is 392 nM.
As for `Cn1c(-c2cn(C3CC3)nc2C(F)(F)F)cnc1C(=O)Nc1ccc(C(=O)NC2CC3(CC(N)C3)C2)c(Cl)c1` (stereo not drawn) [Example 317, N-(4-((6-aminospiro[3.3]heptan-2-yl)carbamoyl)-3-chlorophenyl)-5-(1-cyclopropyl-3-(trifluoromethyl)-1H-pyrazol-4-yl)-1-methyl-1H-imidazole-2-carboxamide hydrochloride], the IC90 amounted to 393 nM.
As for `Cn1c(-c2cn(C3CC3)nc2C(F)(F)F)cnc1C(=O)Nc1ccc(C(=O)N2CCN(C(=O)C3(O)CCNC3)CC2)c(Cl)c1` (stereo not drawn) [Example 318, N-[3-chloro-4-[4-(3-hydroxypyrrolidine-3-carbonyl)piperazine-1-carbonyl]phenyl]-5-[1-cyclopropyl-3-(trifluoromethyl)pyrazol-4-yl]-1-methylimidazole-2-carboxamide;hydrochloride], the figure is 396 nM; as for `Cn1c(-c2cn(C3CC3(F)F)nc2C(F)(F)F)cnc1C(=O)Nc1ccc(C(=O)NC2CC3CNCC32)c(Cl)c1` (stereo not drawn) [Example 319, N-(4-((3-azabicyclo[3.2.0]heptan-6-yl)carbamoyl)-3-chlorophenyl)-5-(1-(2,2-difluorocyclopropyl)-3-(trifluoromethyl)-1H-pyrazol-4-yl)-1-methyl-1H-imidazole-2-carboxamide formate], 398 nM; as for `Cn1c(-c2cn(C3CC3)nc2C(F)(F)F)cnc1C(=O)Nc1ccc(C(=O)N2CCN(C(=O)NCC3(O)CCNCC3)CC2)c(Cl)c1` [Example 320, 4-(2-chloro-4-(5-(1-cyclopropyl-3-(trifluoromethyl)-1H-pyrazol-4-yl)-1-methyl-1H-imidazole-2-carboxamido)benzoyl)-N-((4-hydroxypiperidin-4-yl)methyl)piperazine-1-carboxamide formate], 403 nM.
As for `Cn1c(-c2cn(C3CC3)nc2C(F)(F)F)cnc1C(=O)Nc1ccc(C(=O)N2CCN(C(=O)[C@@H]3C[C@@H](O)CN3)CC2)c(Cl)c1` [Example 321, N-(3-chloro-4-(4-((2S,4R)-4-hydroxypyrrolidine-2-carbonyl)piperazine-1-carbonyl)phenyl)-5-(1-cyclopropyl-3-(trifluoromethyl)-1H-pyrazol-4-yl)-1-methyl-1H-imidazole-2-carboxamide hydrochloride], the IC90 was determined as 403 nM.
Consider `Cn1c(-c2cn(C3CC3)nc2C(F)(F)F)cnc1C(=O)Nc1ccc(C(=O)N[C@H]2[C@@H]3CN(C(=O)N4CC[C@@H](N)C4)C[C@@H]32)c(Cl)c1` [Example 322, N-(4-((exo-3-((R)-3-aminopyrrolidine-1-carbonyl)-3-azabicyclo[3.1.0]hexan-6-yl)carbamoyl)-3-chlorophenyl)-5-(1-cyclopropyl-3-(trifluoromethyl)-1H-pyrazol-4-yl)-1-methyl-1H-imidazole-2-carboxamide formate], for which the IC90 is 407 nM.
As for `Cn1c(-c2cn(C3CC3)nc2C(F)(F)F)cnc1C(=O)Nc1ccc(C(=O)N2CCC(C3CCNCC3)CC2)c(Cl)c1` [Example 323, N-(4-([4,4′-bipiperidine]-1-carbonyl)-3-chlorophenyl)-5-(1-cyclopropyl-3-(trifluoromethyl)-1H-pyrazol-4-yl)-1-methyl-1H-imidazole-2-carboxamide formate], the figure is 407 nM; as for `C[C@H](N)C(=O)N[C@H]1CC[C@@H](NC(=O)c2ccc(NC(=O)c3ncc(-c4cn(CC#N)nc4C(F)(F)F)n3C)cc2Cl)CC1` [Example 324, N-[4-[[4-[[(2S)-2-aminopropanoyl]amino]cyclo-hexyl]carbamoyl]-3-chlorophenyl]-5-[1-(cyanomethyl)-3-(trifluoromethyl)pyrazol-4-yl]-1-methylimidazole-2-carboxamide;2,2,2-trifluoroacetic acid], 408 nM; as for `CCn1cc(-c2cnc(C(=O)Nc3ccc(C(=O)N4CCN(C(=O)N[C@H]5C[C@@H](N)C5)CC4)c(Br)c3)n2C)c(C(F)(F)F)n1` [Example 325, rac-N-((is,3s)-3-aminocyclobutyl)-4-(2-bromo-4-(5-(1-ethyl-3-(trifluoromethyl)-1H-pyrazol-4-yl)-1-methyl-1H-imidazole-2-carboxamido)benzoyl)piperazine-1-carboxamidee formate], 411 nM.
Turning to `Cn1c(-c2cn(CC#N)nc2C(F)(F)F)cnc1C(=O)Nc1ccc(C(=O)N[C@H]2C[C@@H](NC(=O)N3CCCC(N)C3)C2)c(Cl)c1` (stereo partly drawn) [Example 326, 3-amino-N-[3-[[2-chloro-4-[[5-[1-(cyanomethyl)-3-(trifluoromethyl)pyrazol-4-yl]-1-methyl-imidazole-2-carbonyl]amino]benzoyl]amino]cyclobutyl]piperidine-1-carboxamide; formic acid], the IC90 was 411 nM.
For `Cn1c(-c2cn(CC3CCC3)nc2C(F)(F)F)cnc1C(=O)Nc1ccc(C(=O)N2CCN(C(=O)[C@H]3CC[C@@H](N)C3)CC2)c(Cl)c1` [Example 327, N-(4-(4-((1S,3R)-3-aminocyclopentane-1-carbonyl)piperazine-1-carbonyl)-3-chlorophenyl)-5-(1-(cyclobutylmethyl)-3-(trifluoromethyl)-1H-pyrazol-4-yl)-1-methyl-1H-imidazole-2-carboxamide hydrochloride], the IC90 stood at 414 nM.
